{
  "source": "paper PMC11467737",
  "about": "“Osteocalcin binds to a GPRC6A Venus fly trap allosteric site to positively modulate GPRC6A signaling” (FASEB BioAdvances, 2024)",
  "key": {"[1]": {"molecular_target": "T1, human GPRC6A isoform 1 (Homo sapiens, UniProt Q5T6X5)", "T1 construct": "expressed in transfected cells; host or cells: HEK-293, pcDNA3-hGPRC6A", "T1 sequence (Q5T6X5 19-926)": "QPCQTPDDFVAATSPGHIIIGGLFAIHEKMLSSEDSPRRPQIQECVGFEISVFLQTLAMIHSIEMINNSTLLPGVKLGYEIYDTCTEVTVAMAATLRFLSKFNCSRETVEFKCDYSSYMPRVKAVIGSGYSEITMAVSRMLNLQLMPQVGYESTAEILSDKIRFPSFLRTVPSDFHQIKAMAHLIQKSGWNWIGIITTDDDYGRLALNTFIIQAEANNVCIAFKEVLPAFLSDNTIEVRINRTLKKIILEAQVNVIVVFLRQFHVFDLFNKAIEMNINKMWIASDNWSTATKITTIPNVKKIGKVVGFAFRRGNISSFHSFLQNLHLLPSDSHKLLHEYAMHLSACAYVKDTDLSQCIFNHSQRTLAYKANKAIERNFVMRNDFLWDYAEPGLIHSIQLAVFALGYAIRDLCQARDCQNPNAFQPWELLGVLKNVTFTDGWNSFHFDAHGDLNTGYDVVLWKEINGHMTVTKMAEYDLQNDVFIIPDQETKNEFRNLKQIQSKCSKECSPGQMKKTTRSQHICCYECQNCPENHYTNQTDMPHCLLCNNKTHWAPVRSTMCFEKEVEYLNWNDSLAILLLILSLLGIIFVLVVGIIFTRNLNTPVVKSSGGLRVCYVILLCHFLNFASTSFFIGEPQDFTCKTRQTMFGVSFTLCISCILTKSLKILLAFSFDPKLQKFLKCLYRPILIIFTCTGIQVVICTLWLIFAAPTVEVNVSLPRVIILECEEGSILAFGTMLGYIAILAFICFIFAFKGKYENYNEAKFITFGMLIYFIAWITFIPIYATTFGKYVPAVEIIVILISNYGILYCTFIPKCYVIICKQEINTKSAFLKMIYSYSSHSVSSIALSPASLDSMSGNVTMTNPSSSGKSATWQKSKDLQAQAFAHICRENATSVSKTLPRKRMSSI", "test": "cAMP accumulation in HEK-293 cells transfected with human GPRC6A isoform 1 (wild-type, full length)", "assay_type": "cell-based", "conditions": "for cAMP accumulation by synthesized human Ocn fragments: fragments at 20 nM, Figure 3C / S5C", "description": "HEK‐293 transfected with human GPRC6A isoform cDNA plasmids cells (10^5 cells/well)[30] were cultured in 24‐well plates in DMEM supplemented with 10% fetal bovine serum and 1% penicillin/streptomycin (100 U/mL of penicillin and 100 μg/mL of streptomycin) for 48 h followed by 4 h incubation in DMEM/F12 containing 0.1% BSA and 0.5 mM IBMX to achieve quiescence and preventing cAMP degradation. Quiescent cells were treated with vehicle control, various ligands at concentration as indicated for 40 min at 37°C. Then, the reaction was stopped, and the cells lysed with 0.5 mL 0.1 N HCl. cAMP levels were measured by using Cyclic AMP EIA kit (Cayman Chemical; Ann Arbor, MA, USA) following the manufacture's protocol."}, "[2]": {"molecular_target": "T1, human GPRC6A isoform 1", "test": "ERK activation (phospho-ERK/total ERK ELISA) in HEK-293 cells transfected with human GPRC6A isoform 1 (wild-type)", "assay_type": "cell-based", "conditions": "for ERK phosphorylation by synthesized human Ocn fragments: fragments at 20 nM, HEK-293 with pcDNA3-hGPRC6A, Figure 3B / S5B", "description": "All culture reagents were from Invitrogen (Waltham, MA, USA). Human embryonic kidney HEK‐293 cells were obtained from American Type Culture Collection and cultured in DMEM medium supplemented with 10% fetal bovine serum and 1% Penicillin/Streptomycin (P/S). Briefly, HEK‐293 cells transfected with/without human GPRC6A isoforms cDNA plasmids were starved by overnight incubation in serum‐free DMEM/F12 containing 0.1% bovine serum albumin (BSA) and stimulated with various ligands at different doses. […]"}, "[3]": {"conditions": "HEK-293 with pcDNA3-hGPRC6A, 40 min"}},
  "note": "Bridge positions count the residues as written; N and C are the ends. Ends that are not written are not given here.",
  "data": [
    {"substance": "REVCELNPDC (disulfide 4-10 (inferred)) [Ocn 20–29, synthesized human Ocn decapeptide fragment located in the middle of the protein]", "values": [
      {"measurement": "Potency compared to full-length Ocn 1–49, cAMP dose response", "setting": "[1]; HEK-293 with pcDNA3-hGPRC6A, Figure S5A", "value": "greater potency"},
      {"measurement": "cAMP accumulation by synthesized human Ocn fragments", "setting": "[1]; [3]", "value": "high activity"},
      {"measurement": "ERK phosphorylation by synthesized human Ocn fragments", "setting": "[2]; 15 min", "value": "high activity"}
    ]},
    {"substance": "RFYGPV [Ocn 44–49, synthesized human Ocn C‐terminal hexapeptide]", "values": [
      {"measurement": "cAMP accumulation by synthesized human Ocn fragments", "setting": "[1]; [3]", "value": "high activity"},
      {"measurement": "ERK phosphorylation by synthesized human Ocn fragments", "setting": "[2]; 15 min", "value": "high activity"}
    ]},
    {"substance": "osteocalcin (YLYQWLGAPVPYPDPLEPRREVCELNPDCDELADHIGFQEAYRRFYGPV; not fully specified; ends and bridges not checked; UniProt P02818 52-100, looked up) [Ocn 1–49, full human Ocn (49 aa) synthesized by BioMatik; methods also describe decarboxylated Ocn purified from bovine tibial bone, reference compound]", "values": [
      {"measurement": "cAMP accumulation, dose response of full-length Ocn", "setting": "[1]; WT hGPRC6A, Figure 6A", "value": "dose‐dependently stimulated"},
      {"measurement": "Ocn-induced cAMP accumulation, dose response", "setting": "[1]; isoform 1, Ocn 1.73, 8.65, 17.3, 26.0 nM, 1 mM calcium, 40 min, Figure 2C", "value": "activated GPRC6A isoform 1 in a dose dependent manner"},
      {"measurement": "ERK phosphorylation, dose response of full-length Ocn", "setting": "[2]; WT hGPRC6A, Figure 6B", "value": "dose‐dependently stimulated"},
      {"measurement": "Ocn-induced ERK activation, dose response", "setting": "[2]; isoform 1, Ocn 1.73, 8.65, 17.3, 26.0 nM, 1 mM calcium, 15 min, Figure 2B", "value": "activated GPRC6A isoform 1 in a dose dependent manner"}
    ]}
  ]
}
